Assay [1] addresses T1, 5-HT1A receptor (Cavia porcellus, UniProt A0A286Y074).
T1 construct: guinea-pig ileum in vitro; from tissue; host or cells: guinea-pig ileum
T1 sequence (A0A286Y074 1-421): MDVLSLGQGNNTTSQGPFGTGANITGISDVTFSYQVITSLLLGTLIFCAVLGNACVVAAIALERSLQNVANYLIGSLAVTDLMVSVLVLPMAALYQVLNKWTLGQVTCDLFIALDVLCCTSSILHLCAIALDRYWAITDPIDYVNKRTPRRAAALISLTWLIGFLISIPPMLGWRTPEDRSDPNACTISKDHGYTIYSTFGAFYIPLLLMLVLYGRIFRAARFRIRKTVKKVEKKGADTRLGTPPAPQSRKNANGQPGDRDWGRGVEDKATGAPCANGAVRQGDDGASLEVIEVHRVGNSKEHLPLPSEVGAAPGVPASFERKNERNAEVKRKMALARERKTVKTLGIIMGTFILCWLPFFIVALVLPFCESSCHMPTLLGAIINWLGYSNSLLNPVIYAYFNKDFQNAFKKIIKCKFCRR
In words: 5-HT1A receptor antagonism: antagonism of 5-carboxamidotryptamine in the guinea-pig ileum in vitro. As for the experimental part: The compounds are tested for 5-HT1A receptor antagonism activity in a test involving the antagonism of 5-carboxamidotryptamine in the guinea-pig ileum in vitro (based upon the procedure of Fozard et al, Br J Pharmac, 1985, 86, 601 P).

In assay [2] the test system is α1 site. In words: affinity for the α1 site. Type of assay: binding. The conditions noted are these: procedure of A. L. Marrow et al.
Assay [3] concerns the target T2, 5-HT1A receptor (Rattus norvegicus, UniProt P19327).
T2 construct: rat hippocampal membrane homogenate; from tissue; host or cells: rat hippocampal membrane homogenate
T2 sequence (P19327 1-422): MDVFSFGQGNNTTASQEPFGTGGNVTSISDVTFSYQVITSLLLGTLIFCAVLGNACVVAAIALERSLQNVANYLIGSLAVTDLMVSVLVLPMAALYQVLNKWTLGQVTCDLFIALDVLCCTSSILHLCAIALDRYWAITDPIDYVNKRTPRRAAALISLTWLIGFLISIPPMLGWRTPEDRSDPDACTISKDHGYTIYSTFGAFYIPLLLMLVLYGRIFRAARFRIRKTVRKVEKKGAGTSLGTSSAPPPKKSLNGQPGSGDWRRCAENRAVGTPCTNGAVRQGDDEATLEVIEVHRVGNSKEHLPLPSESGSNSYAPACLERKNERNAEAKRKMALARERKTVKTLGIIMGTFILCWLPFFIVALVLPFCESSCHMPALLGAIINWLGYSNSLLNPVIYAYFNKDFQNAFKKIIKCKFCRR
The experiment in a line: 5-HT1A receptor binding activity in rat hippocampal membrane homogenate. The conditions noted are these: method of Alexander and Wood. Here is the method:
The compounds of the invention are tested for 5-HT1A receptor binding activity in rat hippocampal membrane homogenate by the method of B. S. Alexander and M. D. Wood, J Pharm Pharmacol. 1988, 40, 888-891.

For orientation: pA2 means a measure of antagonist potency on a negative log scale. Low values mean lower antagonist potency, high ones higher antagonist potency. The IC50 is the concentration that gives 50% inhibition. Low values mean inhibition by little substance, high ones a need for much substance.

In the case of `COc1ccccc1C1CCN([C@H](C)CN(C(=O)C2CCCCC2)c2ccccn2)CC1` [Example 1, (R)-N-(2-(1-(4-(2-Methoxyphenyl)piperidinyl))propyl)-N-(2-pyridyl)cyclohexanecarboxamide], the pA2 in assay [1] is reported as 7.9. In addition, the IC50 in assay [2] turned out to be 0.858 µM; in assay [3], 0.0035 µM.

The values above are taken from patent US5763460A, “N-(piperidinyl-1-alkyl)-substituted cyclohexane carboxylic acid amides as 5-htia receptor antagonists” (John Wyeth & Brother Limited, priority 1993, dated 1998).
